Assay results published in patent publication US11712444B2, “Compositions and methods of treating neuronal injury” (CHILDREN'S MEDICAL CENTER CORPORATION, priority 2019, dated 2023).
Entries after “also recorded” stand apart in the source; their conditions may differ.

Legend:
[1] = cited from earlier work
[2] = system: metals in the retina, i.e., copper and zinc; assay: Autometallography (AMG) of metals in the retina after optic nerve crush (ONC); assay type: in vivo, mice; conditions: day 1 post ONC; intraocular injection immediately after ONC; TPEN 100 μM, PSP-2 50 μM, PSP-2+Cu 50 μM
Procedure: Metals in the retina, i.e., copper and zinc, were visualized using autometallography. […] To determine whether copper chelators had any effect on this increase, the selective copper chelator PSP-2 was used. Mice were administered 3 μL of DMSO 1% in PBS (control), 100 μM TPEN (10 mM TPEN stock in DMSO diluted in PBS (DMSO 1%)), 50 μM PSP-2 (5 mM PSP-2 stock in DMSO diluted in PBS (DMSO 1%)), or 50 μM PSP-2+Cu (10 mM PSP-2+Cu in de-O2 water diluted in PBS (DMSO 1%) immediately after unilateral optic nerve crush (ONC). In these studies, the normal, intact retina was used as a reference.
(§1) Experiments were performed in 8 to 9-week-old 129S1/SvImJ male mice (Jackson Laboratory, Bar Harbor, Me.). Mice were anesthetized prior to ONC surgery with ketamine and xylazine. The ONC surgery and euthanization of mice were performed as previously described in U.S. Publication No. 2014/079741, the contents of which are hereby incorporated by reference in their entirety. Briefly, a conjunctival incision was made over the dorsal aspect of one eye, which was then gently rotated downward in the orbit. The orbital muscles were slightly separated to expose the optic nerve at its exit from the globe, which was then crushed for 5 seconds with jewelers' forceps (Dumont number 5) near the back of the eye (within 0.5 mm). […]

[3] = system: GAP-43-positive axons in the optic nerve; assay: Axon regeneration after optic nerve crush (GAP-43-positive axons); assay type: in vivo, mice
Procedure: To determine if copper chelation promotes axon regeneration after nerve injury, mice were administered treatments as described in Example 1 after bilateral ONC. […] An antibody against GAP-43 was used to detect growing axons (FIG. 4A-4D).
as §1, with “mm). ONC was performed unilaterally for all autometallography experiments and bilaterally for all regeneration experiments. Treatments were administered unilaterally for all autometallography experiments and bilaterally for all regeneration experiments. Post-ONC treatments were administered by intraocular injection immediately after ONC surgery. Mice were sacrificed with an overdose of anesthesia. Tissue samples were snap-frozen for all autometallography experiments. Mice were perfused with saline followed by 4% paraformaldehyde (PFA) and the tissue samples were post-fixed in PFA for regeneration experiments.” for “mm).”
(§2) Axon growth was determined by counting GAP-43-positive axons extending 0.5 and 1 mm from the crush site. The cross-sectional width of the nerve was measured at the 0.5 and 1 mm points. The number of axons per millimeter of nerve width was calculated and then averaged for the number of sections analyzed. The estimated number of axons per nerve was then calculated. Retinal ganglion cell survival was measured as the number of βIII-tubulin positive cells per mm^2.

[4] = system: HT22 cell culture; assay: Glutamate toxicity in HT22 cell culture; assay type: cell-based; conditions: PSP-2 50 μM (FIG. 9)
From the text: Glutamate toxicity is a model of ferroptotic cell death. Glutamate toxicity and ferroptosis are likely involved in retinal ganglion cell (RGC) death post-optic nerve crush (ONC).

[5] = system: retinal ganglion cells; assay: Retinal ganglion cell survival after optic nerve crush (βIII-tubulin positive cells); assay type: in vivo, mice; conditions: two weeks post ONC
Procedure: as §1, with “mm). ONC was performed unilaterally for all autometallography experiments and bilaterally for all regeneration experiments.” for “mm).”
as §2

[6] = system: astrocyte-rich primary cortical neurons; assay: DTDP (dithiodipyridine) toxicity in astrocyte-rich primary cortical neurons; assay type: cell-based; conditions: PSP-2 3 μM (FIG. 8)
Procedure: FIG. 8 is a bar plot showing that DTDP (dithiodipyridine) toxicity in astrocyte-rich primary cortical neurons was reversed with PSP-2 (3 μM). DTDP is an agent oxidizing metallothioneins. Oxidation of metallothioneins leads to liberation of metals (zinc and copper) and cell death.

CP(C)(=S)CP(CP(C)(C)=S)c1cccc2cccc(P(CP(C)(C)=S)CP(C)(C)=S)c12 [naphPS]
dissociation constant, Cu(I) [1]: 0.8 zM

c1ccc(CN(CCN(Cc2ccccn2)Cc2ccccn2)Cc2ccccn2)nc1 [TPEN, N, N, N′, N′-tetrakis(2-pyridylmethyl) ethylenediamine, reference compound]
autometallography (AMG) signal in the retina [2]: reduced the autometallography signal

CP(C)(=S)CP(CCP(CP(C)(C)=S)CP(C)(C)=S)CP(C)(C)=S [PSP-2]
autometallography (AMG) signal in the retina [2]: reduced the autometallography signal; also recorded: reduced metal autometallography (AMG) signal | axon regeneration, dose dependence ([3]; 2 weeks post ONC, FIG. 7A): improved axon regeneration in a dose-dependent manner | axon regeneration at 0.5 mm distance from the site of ONC ([3]; two weeks post ONC, 0.5 mm, PSP-2 50 μM intraocular): improved axon regeneration | axon regeneration at 1.0 mm distance from the site of ONC ([3]; two weeks post ONC, 1.0 mm, PSP-2 50 μM intraocular): improved axon regeneration | glutamate-induced cell death [4]: partially alleviated | survival of retinal ganglion cells [5]: did not significantly affect survival of retinal ganglion cells; also recorded: did not improve retinal ganglion cell (RGC) survival | DTDP-induced cell death [6]: reversed

CP(C)(=S)CP(CP(C)(C)=S)c1ccccc1P(CP(C)(C)=S)CP(C)(C)=S [PhenPS]
dissociation constant, Cu(I) [1]: about 0.6 zM
